The results in this text go back to patent US11192852B2, “Pyrazolyl and pyrimidinyl tricyclic enones as antioxidant inflammation modulators” (REATA PHARMACEUTICALS, INC., priority 2010, dated 2021).

The subject of test [1] is IFNγ-induced NO production in RAW264.7 mouse macrophages. Put plainly: Suppression of IFNγ-induced nitric oxide production (Griess reagent). It is filed as cell-based. As to conditions: 2 h pre-treatment (0-200 nM), then IFNγ 24 h, normalized to cell viability. From the text:
Nitric Oxide Production and Cell Viability.
Background: Nitrite, measured by Griess reagent, commonly stands in for NO production.

The test system of test [2] is Nrf2 transcription factor (human NQO1-ARE reporter) in HuH7 cells. Put plainly: NQO1-ARE Luciferase Reporter Assay. It is filed as cell-based. To be noted: Huh-7, 62.5 nM, 18 h, fold over DMSO vehicle, Firefly normalized to Renilla. The source says: NQO1-ARE Luciferase Reporter Assay.
This assay allows for quantitative assessment of the endogenous activity of the Nrf2 transcription factor in cultured mammalian cells. Expression of Firefly luciferase from NQO1-ARE luciferase reporter plasmid is controlled by binding of Nrf2 to a specific enhancer sequence corresponding to the antioxidant response element (ARE) that was identified in the promoter region of the human NADPH:quinone oxidoreductase 1 (NQO1) gene (Xie et al., 1995). The plasmid was constructed by inserting a sequence:
5′-[…]-3′ (SEQ ID NO:1) encompassing the human NQO1-ARE into the pLuc-MCS vector using HindIII/XhoI cloning sites (GenScript Corp., Piscataway, N.J.). The assay is performed in HuH7 cells maintained in DMEM (Invitrogen) supplemented with 10% FBS and 100 U/ml (each) of penicillin and streptomycin. For the assay, cells are plated in 96-well plates at 17,000 cells per well. Twenty four hours later, the cells are co-transfected with 50 ng each of NQO1-ARE reporter plasmid and pRL-TK plasmid using Lipofectamine 2000 transfection reagent (Invitrogen). pRL-TK plasmid constitutively expresses Renilla luciferase and is used as an internal control for normalization of transfection levels. Thirty hours after transfection, the cells are treated with compounds (at concentrations ranging from 0 to 1 μM) for eighteen hours. Firefly and Renilla luciferase activity is assayed by Dual-Glo Luciferase Assay (Promega Corp., Madison, Wis.), the luminescence signal is measured on an L-Max II luminometer (Molecular Devices). Firefly luciferase activity is normalized to the Renilla activity, and fold induction over a vehicle control (DMSO) of normalized Firefly activity is calculated. The fold induction at 62.5 nM concentration is used for comparing relative potencies of compounds to induce Nrf2 transcriptional activity. See Xie T, Belinsky M, Xu Y, Jaiswal A K. ARE- and TRE-mediated regulation of gene expression. Response to xenobiotics and antioxidants. J Biol Chem. (1995) 270(12):6894-6900, which is incorporated herein by reference.

[3] abbreviates: Mus musculus, RAW264.7, RAW264.7 cells.

Some results are limits rather than exact numbers.

In general, IC50 refers to the concentration that gives 50% inhibition. Broadly, the fold induction is the ratio of treated to control signal. Higher therefore signals a strong induction. Consider `C[C@@H]1C(=O)C(C#N)=C[C@]2(C)c3nn(C)c(-c4ccccc4)c3CC[C@@H]12` (racemic) [TX63541], for which, in test [1] (setting [3]), the IC50 came out at 0.006 µM. Besides, the fold induction at 0.0625 µM in test [2] is 4.4.
Regarding `Cn1cc2c(n1)[C@@]1(C)C=C(C#N)C(=O)C(C)(C)[C@@H]1CC2` [TX63341], in test [1] (RAW264.7 cells), the IC50 worked out at 0.07 µM. The compound further yielded a fold induction at 0.0625 µM in test [2] of 1.7.
In the case of `Cn1nc2c(c1-c1ccccc1)CC[C@H]1C(C)(C)C(=O)C(C#N)=C[C@]21C` [TX63465], the IC50 in test [1] (setting [3]) stood at 0.0183 µM. The same compound displayed a fold induction at 0.0625 µM in test [2] of 4.8.
On to `Cc1ncc2c(n1)[C@@]1(C)C=C(C#N)C(=O)C(C)(C)[C@@H]1CC2` [TX63468], for which the IC50 in test [1] (setting [3]) is 0.064 µM. Besides, the fold induction at 0.0625 µM in test [2] was 2.
As for `Cn1nc2c(c1-c1cccnc1)CC[C@H]1C(C)(C)C(=O)C(C#N)=C[C@]21C` [TX63503], the IC50 in test [1] (setting [3]) amounted to 0.017 µM. Further, the fold induction at 0.0625 µM in test [2] was found to be 5.5.
Turning to `Cn1nc2c(c1-c1ccncc1)CC[C@H]1C(C)(C)C(=O)C(C#N)=C[C@]21C` [TX63505], the IC50 in test [1] (setting [3]) stood at 0.016 µM. In test [2], this compound had a fold induction at 0.0625 µM of 6.8.
The like results for `Cn1nc2c(c1-c1cccc(F)c1)CC[C@H]1C(C)(C)C(=O)C(C#N)=C[C@]21C` [TX63506] were, in that order, 0.025 µM and 3.2.
The like results for `Cc1cccc(-c2c3c(nn2C)[C@@]2(C)C=C(C#N)C(=O)C(C)(C)[C@@H]2CC3)c1` [TX63512] were, in that order, 0.025 µM and 1.4.
For `COc1cccc(-c2c3c(nn2C)[C@@]2(C)C=C(C#N)C(=O)C(C)(C)[C@@H]2CC3)c1` [TX63513], in that order: 0.025 µM and 2.9.
For `Cn1nc2c(c1-c1ccccc1F)CC[C@H]1C(C)(C)C(=O)C(C#N)=C[C@]21C` [TX63519], the IC50 in test [1] (setting [3]) stood at 0.021 µM. This compound came in with a fold induction at 0.0625 µM in test [2] of 2.5.
Regarding `Cn1nc2c(c1NC(=O)c1ccccc1)CC[C@H]1C(C)(C)C(=O)C(C#N)=C[C@]21C` [TX63531], in test [1] (setting [3]), the half-maximal inhibitory concentration (IC50) was > 0.2 µM. Moreover, in test [2], the fold induction at 0.0625 µM turned out to be 1.1.
Consider `Cn1nc2c(c1-c1ccccc1)CC[C@H]1CC(=O)C(C#N)=C[C@]21C` [TX63540], for which the IC50 in test [1] (setting [3]) came to 0.0668 µM. In test [2], the fold induction at 0.0625 µM was 1.6.
`CC(C)c1c2c(nn1C)[C@@]1(C)C=C(C#N)C(=O)C(C)(C)[C@@H]1CC2` [TX63547]: the IC50 in test [1] (setting [3]) is 0.087 µM. Moreover, in test [2], the fold induction at 0.0625 µM is 3.1.
For `Cn1nc2c(c1Cc1ccccc1)CC[C@H]1C(C)(C)C(=O)C(C#N)=C[C@]21C` [TX63550], in that order: 0.054 µM and 1.8.
For `CC1(C)C(=O)C(C#N)=C[C@]2(C)c3nc(-c4ccccc4)ncc3CC[C@@H]12` [TX63552], in that order: 0.024 µM and 1.9.
`Cc1ncc2c(n1)[C@@]1(C)C=C(C#N)C(=O)[C@@H](C)[C@@H]1CC2` [TX63554]: the IC50 in test [1] (setting [3]) is 0.042 µM. The fold induction at 0.0625 µM in test [2] came to 1.9.
The like results for `CC(C)(C)c1ncc2c(n1)[C@@]1(C)C=C(C#N)C(=O)C(C)(C)[C@@H]1CC2` [TX63561] were, in that order, 0.044 µM and 2.4.
For `CN1C(=O)C(C#N)=C[C@]2(C)c3nn(C)c(-c4ccccc4)c3CC[C@@H]12` [TX63568], in that order: > 0.2 µM and 1.3.
`C[C@@H]1C(=O)C(C#N)=C[C@]2(C)c3nc(-c4ccccc4)ncc3CC[C@@H]12` [TX63569]: the half-maximal inhibitory concentration (IC50) in test [1] (setting [3]) was 0.0098 µM. The compound further came in with a fold induction at 0.0625 µM in test [2] of 2.
The like results for `Cc1nc2c(c(=O)n1C)CC[C@H]1C(C)(C)C(=O)C(C#N)=C[C@]21C` [TX63584] were, in that order, > 0.2 µM and 3.1.
For `CC1(C)C(=O)C(C#N)=C[C@]2(C)c3nc(-c4cccnc4)ncc3CC[C@@H]12` [TX63586], in that order: 0.022 µM and 2.9.
On to `Cn1cc(-c2c3c(nn2C)[C@@]2(C)C=C(C#N)C(=O)C(C)(C)[C@@H]2CC3)cn1` [TX63588], for which the IC50 in test [1] (setting [3]) was found to be 0.033 µM. Further, the fold induction at 0.0625 µM in test [2] amounted to 5.2.
For `CC[C@@H]1C(=O)C(C#N)=C[C@]2(C)c3nc(-c4ccccc4)ncc3CC[C@@H]12` [TX63598], in that order: 0.012 µM and 1.9.
The like results for `CC[C@@H]1C(=O)C(C#N)=C[C@]2(C)c3nn(C)c(-c4ccccc4)c3CC[C@@H]12` [TX63599] were, in that order, 0.014 µM and 3.2.
For `Cn1nc2c(c1Cl)CC[C@H]1C(C)(C)C(=O)C(C#N)=C[C@]21C` [TX63604], in that order: 0.049 µM and 3.4.
`CC1(C)C(=O)C(C#N)=C[C@]2(C)c3c(c(-c4ccccc4)nn3-c3ccccc3)CC[C@@H]12` [TX63605]: the IC50 in test [1] (setting [3]) worked out at 0.037 µM. Also, the fold induction at 0.0625 µM in test [2] was 2.8.
The like results for `Cn1nc2c(c1-c1ccccc1)CC[C@H]1[C@H](Cc3ccccc3)C(=O)C(C#N)=C[C@]21C` [TX63607] were, in that order, > 0.2 µM and 1.
The like results for `COc1nc(-c2cccnc2)nc2c1CC[C@H]1[C@H](C)C(=O)C(C#N)=C[C@]21C` [TX63724] were, in that order, 0.0031 µM and 4.9.
